Experiment [1] has as its target T1, ASK1 T838 auto phosphorylation (Homo sapiens, UniProt Q99683).
T1 sequence (Q99683 1-1374): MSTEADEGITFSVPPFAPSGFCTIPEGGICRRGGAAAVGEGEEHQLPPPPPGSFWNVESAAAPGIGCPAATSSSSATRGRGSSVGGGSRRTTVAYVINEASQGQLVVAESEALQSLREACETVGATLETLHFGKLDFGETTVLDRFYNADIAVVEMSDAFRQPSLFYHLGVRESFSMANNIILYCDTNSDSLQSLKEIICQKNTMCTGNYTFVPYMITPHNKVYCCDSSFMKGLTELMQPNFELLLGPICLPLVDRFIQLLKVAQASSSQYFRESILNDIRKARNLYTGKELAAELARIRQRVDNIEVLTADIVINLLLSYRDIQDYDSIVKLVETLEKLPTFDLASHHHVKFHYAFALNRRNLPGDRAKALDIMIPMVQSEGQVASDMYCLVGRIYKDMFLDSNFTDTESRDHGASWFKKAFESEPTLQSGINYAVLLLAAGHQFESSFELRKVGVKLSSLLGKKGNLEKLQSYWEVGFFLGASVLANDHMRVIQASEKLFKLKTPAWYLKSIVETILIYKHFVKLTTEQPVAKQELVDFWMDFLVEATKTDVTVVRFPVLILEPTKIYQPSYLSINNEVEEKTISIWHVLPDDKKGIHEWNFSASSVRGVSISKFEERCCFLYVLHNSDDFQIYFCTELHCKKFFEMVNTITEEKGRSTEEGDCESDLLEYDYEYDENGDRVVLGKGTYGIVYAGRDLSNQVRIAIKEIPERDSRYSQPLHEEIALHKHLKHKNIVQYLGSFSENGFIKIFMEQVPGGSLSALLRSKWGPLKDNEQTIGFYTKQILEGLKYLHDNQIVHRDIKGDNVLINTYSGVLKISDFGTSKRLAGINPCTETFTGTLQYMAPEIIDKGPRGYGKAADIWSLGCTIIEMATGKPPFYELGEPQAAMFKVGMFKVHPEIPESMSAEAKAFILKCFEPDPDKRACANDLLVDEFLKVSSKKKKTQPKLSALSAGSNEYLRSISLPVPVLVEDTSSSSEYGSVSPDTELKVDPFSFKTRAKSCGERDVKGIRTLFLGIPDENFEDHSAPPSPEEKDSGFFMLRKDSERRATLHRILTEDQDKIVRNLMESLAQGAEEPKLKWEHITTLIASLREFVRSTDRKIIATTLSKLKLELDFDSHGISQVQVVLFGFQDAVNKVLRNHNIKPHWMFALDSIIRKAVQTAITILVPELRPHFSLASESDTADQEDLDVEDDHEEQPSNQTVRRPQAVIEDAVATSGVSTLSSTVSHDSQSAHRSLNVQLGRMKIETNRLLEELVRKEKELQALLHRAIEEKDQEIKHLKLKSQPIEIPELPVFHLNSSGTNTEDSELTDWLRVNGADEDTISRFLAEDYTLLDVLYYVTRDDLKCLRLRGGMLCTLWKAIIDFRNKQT
The experiment can be described thus: ASK1 (AUTO PHOS T838) assay, MSD format, in HEK-293T cells transfected with ASK1-V5. The class given is cell-based. Conditions: ASK1 T838 auto phosphorylation in HEK-293T cells, 1 hr compound incubation; class symbols. The essentials: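 HEK-293T cells transiently transfected with full-length ASK1-V5 plasmid were replated, then treated 1 h at 37 °C with a 10-point, 3-fold series from 20 μM. Lysates were probed by MSD with anti-pASK1 T838 and a sulfo-tag secondary, read by chemiluminescence. IC50 came from a 4-parameter fit of normalized % activity.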

In another experiment the target is T2, ASK1/MAP3K5 (Homo sapiens, UniProt Q99683).
T2 sequence (Q99683 1-1374): T1 sequence (Q99683 1-1374)
Put plainly: ASK1/MAP3K5 kinase assay by Reaction Biology Corp. (headed ASK1 TR-FRET Assay). The format is biochemical. The settings on record: 20 μM myelin basic protein, 10 μM ATP, class symbols. An outline of the steps:
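Radiometric filter-binding assay with ASK1/MAP3K5, 20 μM MBP substrate and 10 μM ATP plus ^33P-ATP in HEPES pH 7.5 buffer with 1% DMSO. Compounds were preincubated with kinase 20 min, and the reaction then ran 2 hours at room temperature.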
Background: TR-FRET usually uses a lanthanide donor and a delayed reading to cut background.

Bounds are passed on as bounds.

`CC(C)n1cnnc1-c1cccc(NC(=O)c2cn(-c3cccnc3)nc2C(F)F)n1` [Example 82, 3-(Difluoromethyl)-N-(6-(4-isopropyl-4H-1,2,4-triazol-3-yl)pyridin-2-yl)-1-(pyridin-3-yl)-1H-pyrazole-4-carboxamide]: the IC50 in experiment [1] was ≤ 1000 nM; at ASK1/MAP3K5, ≤ 100 nM.

Regarding `COc1nn(-c2cccnn2)cc1C(=O)Nc1cccc(-c2nncn2C(C)C)n1` [Example 84, N-(6-(4-Isopropyl-4H-1,2,4-triazol-3-yl)pyridin-2-yl)-3-methoxy-1-(pyridazin-3-yl)-1H-pyrazole-4-carboxamide], the IC50 in experiment [1] was ≤ 1000 nM; against ASK1/MAP3K5, ≤ 100 nM.

Regarding `COc1nn(-c2cccnn2)cc1C(=O)Nc1cccc(-c2nncn2[C@@H](C)C(F)(F)F)n1` [Example 85, (S)-3-Methoxy-1-(pyridazin-3-yl)-N-(6-(4-(1,1,1-trifluoropropan-2-yl)-4H-1,2,4-triazol-3-yl)pyridin-2-yl)-1H-pyrazole-4-carboxamide], the IC50 in experiment [1] is ≤ 1000 nM; against ASK1/MAP3K5, ≤ 100 nM.

In the case of `COc1nn(-c2cccnn2)cc1C(=O)Nc1cccc(-c2nncn2[C@H](C)C(F)(F)F)n1` [Example 86, (R)-3-Methoxy-1-(pyridazin-3-yl)-N-(6-(4-(1,1,1-trifluoropropan-2-yl)-4H-1,2,4-triazol-3-yl)pyridin-2-yl)-1H-pyrazole-4-carboxamide], the values for the IC50 (in experiment [1]; at ASK1/MAP3K5) were 1000 to 10000 nM and 100 to 1000 nM, respectively.

In the case of `COc1nn(-c2cnccn2)cc1C(=O)Nc1cccc(-c2nncn2[C@@H](C)C(F)(F)F)n1` [Example 87, (S)-3-Methoxy-1-(pyrazin-2-yl)-N-(6-(4-(1,1,1-trifluoropropan-2-yl)-4H-1,2,4-triazol-3-yl)pyridin-2-yl)-1H-pyrazole-4-carboxamide], the IC50 was ≤ 1000 nM in experiment [1] and ≤ 100 nM against ASK1/MAP3K5.

Consider `COc1nn(-c2cnccn2)cc1C(=O)Nc1cccc(-c2nncn2[C@H](C)C(F)(F)F)n1` [Example 88, (R)-3-Methoxy-1-(pyrazin-2-yl)-N-(6-(4-(1,1,1-trifluoropropan-2-yl)-4H-1,2,4-triazol-3-yl)pyridin-2-yl)-1H-pyrazole-4-carboxamide], for which the IC50 in experiment [1] is 1000 to 10000 nM; against ASK1/MAP3K5, 100 to 1000 nM.

As to `C[C@H](n1cnnc1-c1cccc(NC(=O)c2cn(-c3cnccn3)nc2C(F)F)n1)C(F)(F)F` [Example 89, (S)-3-(Difluoromethyl)-1-(pyrazin-2-yl)-N-(6-(4-(1,1,1-trifluoropropan-2-yl)-4H-1,2,4-triazol-3-yl)pyridin-2-yl)-1H-pyrazole-4-carboxamide], the values for the IC50 (in experiment [1]; against ASK1/MAP3K5) were ≤ 1000 nM and ≤ 100 nM, respectively.

As for `COCCn1cc(C(=O)Nc2cccc(-c3cncn3C(C)C)n2)c(OC)n1` [Example 92, N-(6-(1-Isopropyl-1H-imidazol-5-yl)pyridin-2-yl)-3-methoxy-1-(2-methoxyethyl)-1H-pyrazole-4-carboxamide], the IC50 in experiment [1] is ≤ 1000 nM; against ASK1/MAP3K5, ≤ 100 nM.

As to `Cc1cncc(-n2cc(C(=O)Nc3cccc(-c4cncn4C(C)C)n3)c(C(F)F)n2)c1` [Example 93, 3-(Difluoromethyl)-N-(6-(1-isopropyl-1H-imidazol-5-yl)pyridin-2-yl)-1-(5-methylpyridin-3-yl)-1H-pyrazole-4-carboxamide], the IC50 is ≤ 1000 nM in experiment [1] and ≤ 100 nM against ASK1/MAP3K5.

In the case of `CC(C)n1cncc1-c1cccc(NC(=O)c2cn(-c3cccnc3)nc2C(F)F)n1` [Example 94, 3-(Difluoromethyl)-N-(6-(1-isopropyl-1H-imidazol-5-yl)pyridin-2-yl)-1-(pyridin-3-yl)-1H-pyrazole-4-carboxamide], the half-maximal inhibitory concentration (IC50) in experiment [1] was ≤ 1000 nM; on ASK1/MAP3K5, ≤ 100 nM.

With `CC(C)n1cncc1-c1cccc(NC(=O)c2cn(-c3cncc(C#N)c3)nc2C(F)F)n1` [Example 95, 1-(5-Cyanopyridin-3-yl)-3-(difluoromethyl)-N-(6-(1-isopropyl-1H-imidazol-5-yl)pyridin-2-yl)-1H-pyrazole-4-carboxamide], the figures for the IC50 (in experiment [1]; on ASK1/MAP3K5) were ≤ 1000 nM and ≤ 100 nM, respectively.

`CC(C)n1cncc1-c1cccc(NC(=O)c2cn(-c3cncc(C4CC4)c3)nc2C(F)F)n1` [Example 96, 1-(5-Cyclopropylpyridin-3-yl)-3-(difluoromethyl)-N-(6-(1-isopropyl-1H-imidazol-5-yl)pyridin-2-yl)-1H-pyrazole-4-carboxamide]: the figures for the IC50 (in experiment [1]; against ASK1/MAP3K5) were ≤ 1000 nM and 100 to 1000 nM, respectively.

Turning to `COc1cncc(-n2cc(C(=O)Nc3cccc(-c4cncn4C(C)C)n3)c(C(F)F)n2)c1` [Example 97, 3-(Difluoromethyl)-N-(6-(1-isopropyl-1H-imidazol-5-yl)pyridin-2-yl)-1-(5-methoxypyridin-3-yl)-1H-pyrazole-4-carboxamide], the IC50 in experiment [1] was ≤ 1000 nM; against ASK1/MAP3K5, ≤ 100 nM.

Consider `CC(C)n1cncc1-c1cccc(NC(=O)c2cn(-c3cncc(N(C)C)c3)nc2C(F)F)n1` [Example 98, 3-(Difluoromethyl)-1-(5-(dimethylamino)pyridin-3-yl)-N-(6-(1-isopropyl-1H-imidazol-5-yl)pyridin-2-yl)-1H-pyrazole-4-carboxamide], for which the IC50 is ≤ 1000 nM in experiment [1] and 100 to 1000 nM against ASK1/MAP3K5.

In the case of `CC(C)n1cncc1-c1cccc(NC(=O)c2cn(-c3cncc(O)c3)nc2C(F)F)n1` [Example 99, 3-(Difluoromethyl)-1-(5-hydroxypyridin-3-yl)-N-(6-(1-isopropyl-1H-imidazol-5-yl)pyridin-2-yl)-1H-pyrazole-4-carboxamide], the IC50 in experiment [1] was ≤ 1000 nM; against ASK1/MAP3K5, ≤ 100 nM.

Consider `CC(C)Oc1cncc(-n2cc(C(=O)Nc3cccc(-c4cncn4C(C)C)n3)c(C(F)F)n2)c1` [Example 100, 3-(Difluoromethyl)-1-(5-isopropoxypyridin-3-yl)-N-(6-(1-isopropyl-1H-imidazol-5-yl)pyridin-2-yl)-1H-pyrazole-4-carboxamide], for which the concentration for half-maximal inhibition (IC50) is ≤ 1000 nM in experiment [1] and ≤ 100 nM against ASK1/MAP3K5.

In the case of `COc1nn(C)cc1C(=O)Nc1cccc(-c2cncn2C2CC2)c1` [Example 101, N-(3-(1-cyclopropyl-1H-imidazol-5-yl)phenyl)-3-methoxy-1-methyl-1H-pyrazole-4-carboxamide], the IC50 in experiment [1] was > 10000 nM; against ASK1/MAP3K5, 1000 to 10000 nM.

On to `COc1nn(CC(F)(F)F)cc1C(=O)Nc1cccc(-c2nncn2C(C)C)n1` [Example 102, N-(6-(4-Isopropyl-4H-1,2,4-triazol-3-yl)pyridin-2-yl)-3-methoxy-1-(2,2,2-trifluoroethyl)-1H-pyrazole-4-carboxamide], for which the half-maximal inhibitory concentration (IC50) in experiment [1] was ≤ 1000 nM; on ASK1/MAP3K5 it was ≤ 100 nM.

Take `COc1nn(CC(F)(F)F)cc1C(=O)Nc1cccc(-c2nncn2[C@@H](C)C(F)(F)F)n1` [Example 103, (S)-3-Methoxy-1-(2,2,2-trifluoroethyl)-N-(6-(4-(1,1,1-trifluoropropan-2-yl)-4H-1,2,4-triazol-3-yl)pyridin-2-yl)-1H-pyrazole-4-carboxamide]: the IC50 was ≤ 1000 nM in experiment [1] and ≤ 100 nM against ASK1/MAP3K5.

Consider `COc1nn(CC(F)(F)F)cc1C(=O)Nc1cccc(-c2nncn2[C@@H](C)C(C)C)n1` [Example 104, (S)-3-Methoxy-N-(6-(4-(3-methylbutan-2-yl)-4H-1,2,4-triazol-3-yl)pyridin-2-yl)-1-(2,2,2-trifluoroethyl)-1H-pyrazole-4-carboxamide], for which the IC50 in experiment [1] was ≤ 1000 nM; against ASK1/MAP3K5 it was ≤ 100 nM.

With `COc1nn(CC(F)(F)F)cc1C(=O)Nc1cccc(-c2nncn2C2CC2)n1` [Example 105, N-(6-(4-Cyclopropyl-4H-1,2,4-triazol-3-yl)pyridin-2-yl)-3-methoxy-1-(2,2,2-trifluoroethyl)-1H-pyrazole-4-carboxamide], the values for the IC50 (in experiment [1]; on ASK1/MAP3K5) were ≤ 1000 nM and ≤ 100 nM, respectively.

As a reminder, the IC50 is the concentration that inhibits the measured activity by half. Low values mean higher potency, high ones lower potency.

The record behind these values is patent publication US11999715B2, “ASK1 inhibiting agents” (BIOGEN MA INC., priority 2018, dated 2024).
